ChEMBL document CHEMBL1201862, “PubChem BioAssay data set” (2004)
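Protocol summary: plate cells (96-well), add compound at 5 concentrations, incubate 48 h, interpolate endpoints linearly. Here, GI50 denotes the concentration required for 50% inhibition of growth.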 Activity calls are given as the source filed them. Cut-off read from the data, not from the text of the source: active = GI50 up to about 1.1 µM and inactive = higher.

Key:
Assay in all cases: growth of human tumour cells (NCI), 48 h
[1] = tested on: CAKI-1
[2] = tested on: EKVX
[3] = tested on: HCT-116
[4] = tested on: HOP-92
[5] = tested on: K562
[6] = tested on: M19-MEL
[7] = tested on: MOLT-4
[8] = tested on: NCI-H23
[9] = tested on: SF-539
[10] = tested on: SK-MEL-28
[11] = tested on: SK-OV-3
[12] = tested on: SNB-75
[13] = tested on: SR
[14] = tested on: U-251

| Compound | GI50 [1] | GI50 [2] | GI50 [3] | GI50 [4] | GI50 [5] | GI50 [6] | GI50 [7] | GI50 [8] | GI50 [9] | GI50 [10] | GI50 [11] | GI50 [12] | GI50 [13] | GI50 [14] |
| --- | --- | --- | --- | --- | --- | --- | --- | --- | --- | --- | --- | --- | --- | --- |
| CCN(CC)c1ccc(C(=C2C=CC(=[N+](CC)CC)C=C2)c2ccccc2)cc1 | 0.164 µM (active) | 0.108 µM (active) | 0.0324 µM (active) | 0.0338 µM (active) | 0.0213 µM (active) | 0.0379 µM (active) | 0.0151 µM (active) | 0.0283 µM (active) | 0.0462 µM (active) | 0.0537 µM (active) | 0.0304 µM (active) | 0.0586 µM (active) | 0.0224 µM (active) | 0.0234 µM (active) |
| c1ccc2c3nc(C4CCCC4)nc-3c(NC3CCCC3)[nH]c2c1 | – | 57.4 µM (inactive) | 5.66 µM (inactive) | 19.3 µM (inactive) | 7.83 µM (inactive) | 13.2 µM (inactive) | 6 µM (inactive) | 15.7 µM (inactive) | 15.3 µM (inactive) | 13 µM (inactive) | 32.1 µM (inactive) | 66.1 µM (inactive) | 10.3 µM (inactive) | 3.23 µM (inactive) |
| O=c1c2cc3ccccc3n2c(=O)c2cc3ccccc3n12 | > 100 µM (inactive) | > 100 µM (inactive) | > 100 µM (inactive) | > 100 µM (inactive) | > 100 µM (inactive) | > 100 µM (inactive) | > 100 µM (inactive) | > 100 µM (inactive) | > 100 µM (inactive) | > 100 µM (inactive) | – | > 100 µM (inactive) | > 100 µM (inactive) | > 100 µM (inactive) |
| CCOC(=O)/N=c1\ss/c(=N\C(=S)N(C)C)n1-c1ccccc1 | 48 µM (inactive) | > 100 µM (inactive) | 7.62 µM (inactive) | 25.8 µM (inactive) | 19 µM (inactive) | 0.834 µM (active) | 4.27 µM (inactive) | 67.5 µM (inactive) | 40.7 µM (inactive) | 1.82 µM (inactive) | > 10 µM (inactive) | 6.03 µM (inactive) | 3.72 µM (inactive) | 19.4 µM (inactive) |
| O=P(c1ccccc1)(c1ccccc1)C1CC=C2CCCCCC2C1 (configuration not stated) | 23.7 µM (inactive) | 37.9 µM (inactive) | 19.6 µM (inactive) | 11 µM (inactive) | 28.3 µM (inactive) | 36 µM (inactive) | 18.8 µM (inactive) | 30.2 µM (inactive) | > 10 µM (inactive) | > 10 µM (inactive) | 36.9 µM (inactive) | 25.1 µM (inactive) | – | 67 µM (inactive) |
| CCC(=O)Nc1nc2c(ncn2C2OC(COC(=O)CC)C(OC(=O)CC)C2OC(=O)CC)c(=O)[nH]1 (configuration not stated) | > 100 µM (inactive) | > 100 µM (inactive) | > 100 µM (inactive) | – | > 100 µM (inactive) | > 100 µM (inactive) | > 100 µM (inactive) | – | > 100 µM (inactive) | > 100 µM (inactive) | > 100 µM (inactive) | > 100 µM (inactive) | > 100 µM (inactive) | > 100 µM (inactive) |
| Cc1nc2ccccc2c(=O)n1-c1ccccc1I | > 100 µM (inactive) | 70.6 µM (inactive) | > 100 µM (inactive) | – | 96.4 µM (inactive) | > 100 µM (inactive) | > 100 µM (inactive) | > 100 µM (inactive) | – | > 100 µM (inactive) | > 100 µM (inactive) | 46.2 µM (inactive) | > 100 µM (inactive) | > 100 µM (inactive) |
| O=c1c2cc(Br)ccc2[nH]c(=S)n1-c1ccc(Br)cc1 | – | > 100 µM (inactive) | 89.7 µM (inactive) | 23 µM (inactive) | > 100 µM (inactive) | > 100 µM (inactive) | > 100 µM (inactive) | > 100 µM (inactive) | 97.1 µM (inactive) | > 100 µM (inactive) | – | 12.1 µM (inactive) | > 100 µM (inactive) | 47.3 µM (inactive) |
| CN(C)C(=N/O)/C(=N\O)N(C)C | > 100 µM (inactive) | > 100 µM (inactive) | > 100 µM (inactive) | > 100 µM (inactive) | > 100 µM (inactive) | > 100 µM (inactive) | > 100 µM (inactive) | > 100 µM (inactive) | > 100 µM (inactive) | > 100 µM (inactive) | > 100 µM (inactive) | > 100 µM (inactive) | > 100 µM (inactive) | > 100 µM (inactive) |
| O=CCCCC(Sc1ccccc1)Sc1ccccc1 | 56.8 µM (inactive) | 31.1 µM (inactive) | 12.4 µM (inactive) | – | 14.4 µM (inactive) | 18.1 µM (inactive) | 12.5 µM (inactive) | 11.5 µM (inactive) | – | 15.8 µM (inactive) | 18.7 µM (inactive) | 18.2 µM (inactive) | 15.6 µM (inactive) | 15.5 µM (inactive) |
| COC(=O)C(=O)C(C#N)c1ccc(CC#N)cc1 (configuration not stated) | > 100 µM (inactive) | > 100 µM (inactive) | > 100 µM (inactive) | > 100 µM (inactive) | > 100 µM (inactive) | > 100 µM (inactive) | > 100 µM (inactive) | > 100 µM (inactive) | > 100 µM (inactive) | > 100 µM (inactive) | > 100 µM (inactive) | > 100 µM (inactive) | > 100 µM (inactive) | > 100 µM (inactive) |
| O=C[C@]12CC=C3OC4OC5(CCCCC5)OC4[C@H]3[C@H]1C(=O)C=CC2=O (some centres not stated) | 23 µM (inactive) | 16.1 µM (inactive) | 19.9 µM (inactive) | – | > 10 µM (inactive) | 23.1 µM (inactive) | 2.85 µM (inactive) | > 10 µM (inactive) | 3.55 µM (inactive) | 26.7 µM (inactive) | 45.8 µM (inactive) | – | 2.52 µM (inactive) | 22.7 µM (inactive) |
| CCCC/C=C/C=C/C=C/CCCCCCCC(=O)OCC(COC(=O)CCCCCCC/C=C/C1C=CC(CCCC)C(C(=O)O)C1C(=O)O)OC(=O)CCCCCCC/C=C/C=C/C=C/CCCC.OCCNCO (configuration not stated) | 28.8 µM (inactive) | 19 µM (inactive) | 17 µM (inactive) | 23.8 µM (inactive) | 19.5 µM (inactive) | 17.5 µM (inactive) | 23.7 µM (inactive) | 19.4 µM (inactive) | 19 µM (inactive) | 18.3 µM (inactive) | 23.7 µM (inactive) | 19.2 µM (inactive) | – | – |
| COc1ccc(/C=C2\SC(c3ccc(OC)cc3)N(NC(=O)Cc3ccccc3)C2=O)cc1 (configuration not stated) | > 100 µM (inactive) | – | > 100 µM (inactive) | > 100 µM (inactive) | 88.1 µM (inactive) | > 100 µM (inactive) | 79.3 µM (inactive) | > 100 µM (inactive) | > 100 µM (inactive) | > 100 µM (inactive) | > 100 µM (inactive) | > 100 µM (inactive) | > 100 µM (inactive) | > 100 µM (inactive) |
| O=C(CC1=Nc2nnc(-c3nnc4n3C(=O)C(CC(=O)c3cccnc3)=N4)n2C1=O)c1cccnc1 | > 100 µM (inactive) | – | > 100 µM (inactive) | > 100 µM (inactive) | > 100 µM (inactive) | > 100 µM (inactive) | > 100 µM (inactive) | > 100 µM (inactive) | > 100 µM (inactive) | > 100 µM (inactive) | > 100 µM (inactive) | > 100 µM (inactive) | – | > 100 µM (inactive) |
